Assay results: PubChem BioAssay (NCI)
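Values below derive from 48-hour exposures of cells grown in 96-well plates, with endpoints linearly interpolated between the two concentrations bracketing the appropriate inhibition level. GI50: concentration for 50% inhibition of growth. At the TGI there is no net growth.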

Legend:
Assay in all cases: growth of human tumour cells (NCI), 48 h
CAKI-1 renal = system: CAKI-1 renal
SK-MEL-2 melanoma = system: SK-MEL-2 melanoma
HL-60(TB) leukemia = system: HL-60(TB) leukemia
RPMI-8226 leukemia = system: RPMI-8226 leukemia
SK-MEL-5 melanoma = system: SK-MEL-5 melanoma
M14 melanoma = system: M14 melanoma
COLO 205 colon = system: COLO 205 colon
LOX IMVI melanoma = system: LOX IMVI melanoma
SK-MEL-28 melanoma = system: SK-MEL-28 melanoma
A498 renal = system: A498 renal

SMILES	GI50 (CAKI-1 renal) [µM]	TGI (CAKI-1 renal) [µM]	GI50 (SK-MEL-2 melanoma) [µM]	TGI (SK-MEL-2 melanoma) [µM]	GI50 (HL-60(TB) leukemia) [µM]	TGI (HL-60(TB) leukemia) [µM]	GI50 (RPMI-8226 leukemia) [µM]	TGI (RPMI-8226 leukemia) [µM]	GI50 (SK-MEL-5 melanoma) [µM]	TGI (SK-MEL-5 melanoma) [µM]	GI50 (M14 melanoma) [µM]	TGI (M14 melanoma) [µM]	GI50 (COLO 205 colon) [µM]	TGI (COLO 205 colon) [µM]	GI50 (LOX IMVI melanoma) [µM]	TGI (LOX IMVI melanoma) [µM]	TGI (SK-MEL-28 melanoma) [µM]	TGI (A498 renal) [µM]	GI50 (A498 renal) [µM]	GI50 (SK-MEL-28 melanoma) [µM]
CN(C)c1ccc(/C=N/Nc2ccc(-c3nc4ccccc4[nH]3)cc2)cc1	5	> 50	8.27	26.4	14.6	> 50	4.6	> 50	2.03	9.92	13.2	46.8	20.3	> 50	4.86	11.6	–	–	–	–
Cc1ccc(C)c2sc3cc(=O)ccc-3nc12	–	70.5	–	> 100	–	38.8	–	–	–	31	–	42.7	–	> 100	–	–	> 100	–	–	–
COS(=O)CCOC(=O)c1ccccc1SSc1ccccc1C(=O)OCCS(=O)OC (stereo not drawn)	–	73.1	–	> 100	–	–	–	57.7	–	> 100	–	57.8	–	49.1	–	61.6	> 100	> 100	–	–
ClCc1ccc(Cn2cnc3ncnc(Cl)c32)cc1	2.01	4.42	6.3	> 100	–	–	1.28	2.67	2.82	12.1	2.73	13	1.9	3.78	–	–	–	3.37	1.81	–
CC(C)c1cc2c(O)c(c1)Cc1cc(C(C)C)cc(c1O)Cc1cc(C(C)C)cc(c1O)Cc1cc(C(C)C)cc(c1O)Cc1cc(C(C)C)cc(c1O)Cc1cc(C(C)C)cc(c1O)C2	–	–	–	> 100	–	> 100	–	> 100	–	> 100	–	> 100	–	> 100	–	–	> 100	–	–	–
COc1ccc2c3c([nH]c2c1)[C@H]1C[C@H]2[C@H](C[C@@H](O)[C@H](OC)[C@H]2C(=O)O)CN1CC3	–	> 100	–	> 100	–	–	–	> 100	–	> 100	–	> 100	–	> 100	–	> 100	> 100	> 100	–	–
O=C1C=Cc2noc3cccc1c23	–	25.4	–	21.2	–	3.67	–	–	–	24.2	–	23.2	–	34	–	9.51	17.6	27.5	–	–
CC1=CC(=O)c2[nH]c3ccccc3c2C1=O	14.4	> 25	5.37	13.8	4.06	9.85	–	14.7	4.22	7.66	4.21	7.62	4.12	7.55	–	–	7.98	–	–	4.47
NC(=O)c1ccc(NC(=O)c2oc3ccccc3c2-c2cnn(-c3ccccc3)c2)cc1	–	–	20.4	> 100	> 100	> 100	–	–	–	–	> 100	> 100	–	–	> 100	> 100	> 100	> 100	60.8	> 100
Clc1cccc(C2SCc3nc4ccccc4n32)c1Cl (stereo not drawn)	–	34.1	–	32.2	–	20.3	–	90.6	–	27.3	–	30.5	–	36	–	–	35.9	29.2	–	–
O=C1CCCC2COc3ccc(O)c1c32 (stereo not drawn)	–	–	–	> 100	–	> 100	–	> 100	–	> 100	–	> 100	–	> 100	–	–	> 100	> 100	–	–
C[C@@H]1CC[C@H]2C(CN3CCN(CC4=C(C(F)(F)F)O[C@@H]5O[C@@]6(C)CC[C@H]7[C@H](C)CC[C@@H]4[C@@]57OO6)CC3)=C(C(F)(F)F)O[C@@H]3O[C@@]4(C)CC[C@@H]1[C@]32OO4	3.16	> 33.5	10.6	> 100	0.382	–	0.43	–	2.96	> 100	5.74	> 100	0.996	–	2.3	> 100	> 100	–	–	9.96
C/C(=N\n1c(N)c(C#N)c(-c2ccc(Cl)cc2)c(C#N)c1=O)c1cccnc1	> 100	> 100	> 100	> 100	–	–	> 100	> 100	> 100	> 100	> 100	> 100	> 100	> 100	> 100	> 100	> 100	–	–	> 100
O=[N+]([O-])C(=C(c1ccccc1)c1ccccc1)[N+](=O)[O-]	–	43.2	–	6.83	–	8.74	–	6.43	–	–	–	25.4	–	24.9	–	9.68	20.1	28.6	–	–
CC1=C[C@H]2C[C@@]3(C)O[C@@H]([C@]4(C)CC[C@H]([C@@H](C)C(=O)O)OO4)CC3C(C)(C)[C@H]2CC1 (stereo partly drawn)	–	2.89	–	3.21	–	0.306	–	–	–	–	–	2.96	–	3.31	–	0.296	2.95	–	–	–
O=C1CCCc2c(O)ccc(O)c21	–	–	–	> 100	–	53.5	–	> 100	–	> 100	–	> 100	–	> 100	–	> 100	> 100	> 100	–	–
O=C(O)c1oc2ccc([N+](=O)[O-])c3c2c1CCC3	–	> 100	–	> 100	–	> 100	–	–	–	–	–	> 100	–	> 100	–	> 100	> 100	–	–	–
NC(=O)Cn1c(=O)[nH]c(=O)c2[nH]cnc21	–	–	–	> 100	–	> 100	–	–	–	> 100	–	> 100	–	> 100	–	> 100	> 100	> 100	–	–
Clc1ccc(CCN2CCOCC2)c(Cl)c1	–	> 100	–	> 100	–	> 100	–	> 100	–	> 100	–	> 100	–	> 100	–	–	> 100	> 100	–	–
CC(C)S(=O)(=O)n1c(N)nc2ccc(/C(=N/O)c3ccccc3)cc21	–	76.9	–	54.1	–	44.3	–	31.8	–	–	–	65.9	–	33.5	–	–	> 100	31.7	–	–
